Laboratory results published in patent US11707503B2, “Modulators of complement activity” (Ra Pharmaceuticals, Inc., priority 2015, dated 2023).
Starred links: 1 amine or outer side, 2 acyl side, 3 side chain; linkers in the order of their positions; H or OH if unused. Positions of bridges follow the written chain, without caps; N, C: chain ends. Non-standard residues stand in square brackets, D forms with d. Residues, ends and D or L forms follow the SMILES beside them. Trp(7-aza) = N[C@@H](Cc1c[nH]c2ncccc12)C(=O)O; mXylylene = c1cc(C[*:1])cc(C[*:2])c1; pXylylene = c1cc(C[*:2])ccc1C[*:1]; Phg = N[C@H](C(=O)O)c1ccccc1; NMeS = CN[C@@H](CO)C(=O)O; Nva = CCC[C@H](N)C(=O)O

Key:
rat C5 [1] = assay: Binding to rat C5 (statement)
C5 [2] = molecular target: T1, C5 (Homo sapiens, UniProt P01031); assay: Human hemolysis assay (RBC lysis assay using complete human sera); format: cell-based; design: with complete human sera (Complement Technology, Tyler Tex.) and polypeptides; tissue Complement Technology, Tyler Tex; host or cells: complete human serum; settings: compounds tested in in vivo studies; average IC50, assay and unit inferred
Protocol: Polypeptides listed in Table 3, as well as their optimized derivatives (see Table 4) were assessed for inhibitor activity using a red blood cell hemolysis assay. […] Human sera was rapidly thawed at 37° C. and then stored on ice until diluted into GVB++. Ten 6-fold serial dilutions of polypeptides (10 mM stock, DMSO) were performed in DMSO and then added to buffer. 50 μl of each polypeptide dilution was combined with sera and 100 μl of cells in individual wells of a 96-well tissue culture-treated clear microtitre plate (USA Scientific, Ocala, Fla.) and resuspended by pipetting. Samples were incubated at 37° C. for one hour. […] Data was fit with a log-logit formula producing a dose-response curve and IC50. As used herein, the term “IC50” refers to the half maximal inhibitory concentration, a value used to indicate the amount of the inhibitor needed to reduce a given reaction or process by half.
The human constant light chain kappa and IgG2 constant heavy chain sequences were used for the constants regions of the antibody. This antibody was expressed from human embryonic kidney cells (HEK293) and purified by Protein A affinity chromatography. […] Human sera was rapidly thawed at 37° C. and then stored on ice until diluted into GVB++. Ten 6-fold serial dilutions of each compound (10 mM stock, DMSO) were performed in DMSO and then added to buffer. 50 μl of each compound dilution was combined with sera and 100 μl of cells in individual wells of a 96-well tissue culture-treated clear microtitre plate (USA Scientific, Ocala, Fla.) and resuspended by pipetting. Samples were incubated at 37° C. for one hour. […] Data was fit with a log-logit formula producing a dose-response curve and IC50 (see FIG. 11A).

C5 [3] = molecular target: T1, C5; assay: Competitive fluorescence polarization (FP) binding assay with probe R3076; design: purchased Complement Technology, Tyler, Tex
Protocol: FP was used for screening competitive polypeptide inhibitors of the C5 protein. […] The BODIPY-TMR dye attached to the C-terminal lysine of the protein and the subsequent labeled probe was purified by HPLC.
Human C5 protein was diluted to 200 nM in assay buffer, composed of TBS (EMD Millipore, Billerica, Mass.)+0.005% Triton-X (Sigma, Saint Louis, Mo.). 10 μl of assay buffer was added to all wells of a black, non-binding, 384-well assay plate (Greiner, Monroe, N.C.) and 10 μl of diluted C5 protein stock was added to experimental and designated control wells.
Probe R3076 (SEQ ID NO: 40) was diluted 1 to 10 in DMSO (Life Technologies, Grand Island, N.Y.) and 30 μl of that stock was diluted in 3 ml of assay buffer to yield a 100 nM stock. 10 μl of this working stock was then added to each well in the assay plate. The assay plate was incubated at room temperature, protected from light, for 20 minutes to allow binding to reach equilibrium.
Test articles listed in Table 7 were subsequently diluted in DMSO then assay buffer, comprising 10 2-fold dilutions and were then added to the assay plate in triplicate, rapidly. The assay plate was then incubated in the Paradigm (Molecular Devices, Sunnyvale, Calif.) plate reader for 60 minutes at 25° C.
After incubation for 60 minutes, the plate was read using the Paradigm FP protocol (Molecular Devices, Sunnyvale, Calif.) and raw polarization values were imported into Graphpad Prism.

rat C5 [4] = assay: Ex vivo hemolysis assays, rat PK study; format: cell-based; settings: rat plasma after dosing
[5] = 3 mg/kg IV, cynomolgus monkey
[6] = Pharmacokinetic studies in rat (IV and SC); settings: SC 30 mg/kg, combined R3152 and R3201
Excerpt: In the figure, circles represent concentrations obtained after SC dose and squares represent concentrations obtained after IV dose.
Blood samples were collected at indicated time points, processed into plasma, and analyzed for the indicated compound by LC-MS. […] Blood samples were collected at indicated time points, processed into plasma, and analyzed for the indicated compound by LC-MS.

primate C5 protein = assay: Ex vivo hemolysis assay with cynomolgus plasma; format: cell-based, cynomolgus monkey
Protocol: At each time-point, the hemolytic activity was determined as an indicator of active serum complement (see FIG. 4).

[7] = Compound stability in human plasma; format: in vitro ADME
Protocol: Compounds were assayed for stability in human plasma under the following conditions. Human plasma was obtained from Bioreclamation (Westbury, N.Y.) and collected in sodium heparin. Plasma was adjusted to pH 7.4. DMSO stocks at 10 mM concentration were prepared for the test compounds. Aliquots of the DMSO solutions were dosed into 1 mL of plasma, which had been pre-warmed to 37° C., at a final test compound concentration of 10 μM. The vials were kept in a benchtop THERMOMIXER® (Eppendorf, Hauppauge, N.Y.) for the duration of the experiment. Aliquots (100 μL) were taken at each timepoint and added to a 96-well plate that had been pre-filled with 300 μL of an acetonitrile solution containing mixture of the internal standards (metoprolol, propranolol and warfarin each at 500 ng/mL). […] Aliquots of the supernatant were removed and analyzed by LC-HRAMS.

T1 sequence (P01031 678-1676 limits assumed): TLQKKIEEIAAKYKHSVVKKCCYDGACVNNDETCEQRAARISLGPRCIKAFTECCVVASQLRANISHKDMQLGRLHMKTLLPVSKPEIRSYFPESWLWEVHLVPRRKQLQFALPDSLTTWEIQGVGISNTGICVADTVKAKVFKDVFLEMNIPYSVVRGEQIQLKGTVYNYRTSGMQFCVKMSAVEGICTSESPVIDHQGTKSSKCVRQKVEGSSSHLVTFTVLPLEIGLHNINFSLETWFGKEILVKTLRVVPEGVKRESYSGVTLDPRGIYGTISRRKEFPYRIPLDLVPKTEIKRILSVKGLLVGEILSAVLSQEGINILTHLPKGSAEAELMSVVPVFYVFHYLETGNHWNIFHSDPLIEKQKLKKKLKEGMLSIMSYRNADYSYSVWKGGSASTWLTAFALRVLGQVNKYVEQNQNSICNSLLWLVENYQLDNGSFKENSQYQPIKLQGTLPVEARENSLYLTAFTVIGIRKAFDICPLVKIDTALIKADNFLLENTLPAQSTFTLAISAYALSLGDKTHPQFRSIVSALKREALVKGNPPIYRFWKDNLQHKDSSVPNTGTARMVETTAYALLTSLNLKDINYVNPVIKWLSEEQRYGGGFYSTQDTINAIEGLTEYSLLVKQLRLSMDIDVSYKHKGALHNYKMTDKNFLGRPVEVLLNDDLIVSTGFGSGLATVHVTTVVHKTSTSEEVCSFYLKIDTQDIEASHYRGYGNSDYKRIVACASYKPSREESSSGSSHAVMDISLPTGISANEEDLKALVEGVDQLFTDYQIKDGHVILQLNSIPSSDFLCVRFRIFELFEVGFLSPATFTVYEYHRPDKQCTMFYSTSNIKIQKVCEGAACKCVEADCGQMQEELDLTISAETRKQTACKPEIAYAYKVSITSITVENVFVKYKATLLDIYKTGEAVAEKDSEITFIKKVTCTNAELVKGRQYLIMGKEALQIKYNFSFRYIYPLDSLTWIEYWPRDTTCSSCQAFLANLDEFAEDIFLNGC
T1 sequence (P01031 19-673 limits assumed): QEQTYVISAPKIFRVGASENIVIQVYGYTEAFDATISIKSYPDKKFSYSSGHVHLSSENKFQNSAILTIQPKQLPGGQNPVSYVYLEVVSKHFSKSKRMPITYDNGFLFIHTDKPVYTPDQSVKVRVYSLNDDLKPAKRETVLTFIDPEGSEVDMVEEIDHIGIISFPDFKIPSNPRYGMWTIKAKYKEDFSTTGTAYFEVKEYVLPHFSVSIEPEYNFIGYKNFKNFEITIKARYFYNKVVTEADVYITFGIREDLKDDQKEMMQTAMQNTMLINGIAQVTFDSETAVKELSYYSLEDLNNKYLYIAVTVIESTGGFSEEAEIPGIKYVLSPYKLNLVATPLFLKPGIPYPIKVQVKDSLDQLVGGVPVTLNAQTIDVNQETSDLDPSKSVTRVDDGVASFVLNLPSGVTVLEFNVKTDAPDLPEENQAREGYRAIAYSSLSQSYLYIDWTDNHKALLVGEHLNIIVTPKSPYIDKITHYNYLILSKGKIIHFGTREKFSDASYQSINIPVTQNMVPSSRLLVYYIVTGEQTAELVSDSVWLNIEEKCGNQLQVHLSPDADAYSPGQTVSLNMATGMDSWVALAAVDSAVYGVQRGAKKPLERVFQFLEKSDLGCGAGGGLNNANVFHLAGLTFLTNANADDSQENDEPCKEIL

## CCC[C@H](NC(=O)[C@@H](NC(=O)[C@@H]1CCCN1C(=O)[C@H](Cc1ccc(O)cc1)NC(=O)[C@H](CCC(=O)O)NC(=O)[C@H](Cc1c[nH]c2ncccc12)NC(=O)[C@H](Cc1ccc(O)cc1)NC(=O)[C@@H](NC(=O)[C@H](CC(=O)O)NC(=O)[C@@H]1CSCc2cccc(c2)CSC[C@H](NC(C)=O)C(=O)N[C@@H](C(C)C)C(=O)N[C@@H](CCC(=O)O)C(=O)N[C@@H](CCCNC(=N)N)C(=O)N[C@@H](Cc2ccccc2)C(=O)N1)C(C)(C)C)C1CCCCC1)C(=O)O [Compound R3201, [mXylyl(1,6)]Ac-C-V-E-R-F-C-D-Tbg-Y-azaTrp-E-Y-P-Chg-Nvl]
Rat C5 [1]
  binding to rat C5: do not bind
C5 [2]
  IC50: 7.7 nM

## CCC[C@H](NC(C)=O)C(=O)N[C@H]1CSCc2cccc(c2)CSC[C@@H](C(=O)N[C@@H](CCC)C(=O)N2CCC[C@H]2C(N)=O)NC(=O)[C@H](Cc2c[nH]cn2)NC(=O)[C@H](CO)N(C)C(=O)[C@H](Cc2ccc(O)cc2)NC(=O)[C@H](CCC(=O)O)NC(=O)[C@H](Cc2c[nH]c3ncccc23)NC(=O)[C@H]([C@@H](C)O)NC(=O)[C@H](c2ccccc2)NC1=O [Compound R3011, [mXylyl(2,10)]Ac-Nvl-C-Phg-T-azaTrp-E-Y-(N—Me)S-H-C-Nvl-P-NH2] (Ac-[Nva]C[Phg]T[Trp(7-aza)]EY[NMeS]HC[Nva]P-NH2; linker 2-10 via mXylylene)
C5 [3]
  competition for / affinity for C5 in words: relatively strong affinity

## CCC[C@H](NC(=O)[C@@H](NC(=O)[C@@H]1CCCN1C(=O)[C@H](Cc1ccc(O)cc1)NC(=O)[C@H](CCC(=O)O)NC(=O)[C@H](Cc1c[nH]c2ncccc12)NC(=O)[C@H](Cc1ccc(O)cc1)NC(=O)[C@@H](NC(=O)[C@H](CC(=O)O)NC(=O)[C@@H]1CSCc2cccc(c2)CSC[C@H](NC(C)=O)C(=O)N[C@@H](C(C)C)C(=O)N[C@@H](CCC(=O)O)C(=O)N[C@@H](CCCNC(=N)N)C(=O)N[C@@H](Cc2ccccc2)C(=O)N1)C(C)(C)C)C1CCCCC1)C(N)=O [Compound R3152, [mXylyl(1,6)]Ac-C-V-E-R-F-C-D-Tbg-Y-azaTrp-E-Y-P-Chg-Nvl-NH2]
Rat C5 [4]
  inhibitory activity in ex vivo hemolysis assays: very little inhibitory activity
Rat C5 [1]
  binding to rat C5: do not bind
[5]
  average AUC∞: 23319 ± 2120 ng·h/mL
  mean clearance rate: 2.15 ± 0.203 mL/min/kg
  mean terminal half-life: 10.9 ± 0.8 h
  mean volume of distribution: 1.49 ± 0.152 L/kg
[6]
  bioavailability of dose, based on AUC: approximately 65%
Primate C5 protein; 3 mg/kg IV, plasma levels fell below 100 ng/ml
  time after dosing at which hemolytic activity returned to normal levels: 48 h
Primate C5 protein; ex vivo, plasma diluted 1:100, after 3 mg/kg IV
  plasma concentration with clear inhibition of complement-mediated hemolysis: > 200 ng/mL

## CCC[C@H](NC(=O)[C@@H]1CSCc2ccc(cc2)CSC[C@H](NC(=O)[C@H](CCC)NC(C)=O)C(=O)N[C@@H](c2ccccc2)C(=O)N[C@@H]([C@@H](C)O)C(=O)N[C@@H](Cc2c[nH]c3ncccc23)C(=O)N[C@@H](CCC(=O)O)C(=O)N[C@@H](Cc2ccc(O)cc2)C(=O)N(C)[C@@H](CO)C(=O)N[C@@H](Cc2c[nH]cn2)C(=O)N1)C(N)=O [Compound R3050, [pXylyl(2,10)]Ac-Nvl-C-Phg-T-azaTrp-E-Y-(N—Me)S-H-C-Nvl-NH2] (Ac-[Nva]C[Phg]T[Trp(7-aza)]EY[NMeS]HC[Nva]-NH2; linker 2-10 via pXylylene)
C5 [3]
  competition for / affinity for C5 in words: relatively strong affinity
[7]
  stability in human plasma in words: highly stable
[7]; 37° C., 10 μM, 0 hrs
  Percent remaining at time 0 hrs: 100%
